Test results from patent publication US20100152434A1, “Protein Kinase-binding Nucleosides and Associated Methods” (priority 2007, published 2010).
Where two headings read alike, the source gives them in different places.

Legend:
SK-MEL-5 = test: cells; conditions: Homo sapiens, SK-MEL-5
NCI-H322M [1] = test: cells; conditions: Homo sapiens
A549/ATCC = test: cells; conditions: Homo sapiens, A549
KM12 = test: cells; conditions: Homo sapiens, KM12
HT29 = test: cells; conditions: Homo sapiens, HT-29
HOP-92 = test: cells; conditions: Homo sapiens, HOP-92
ACHN [2] = test: cells; conditions: Homo sapiens
SF-539 [3] = system: SF-539
HCT-116 = test: cells; conditions: Homo sapiens, HCT-116
MDA-MB-435 = test: cells; conditions: Homo sapiens, MDA-MB-435
OVCAR-3 = test: cells; conditions: Homo sapiens, OVCAR-3
NCI/ADR-RES = NCI/ADR-RES (Ovarian Cancer panel)
HCC-2998 = conditions: HCC-2993
ACHN [4] = system: ACHN
NCI-H322M [5] = system: NCI-H322M
SF-539 [6] = test: cells; conditions: Homo sapiens, SF-539
RPMI-8226 = test: cells; conditions: Homo sapiens, RPMI-8226
[7] = Log10 Concentration −4.0, Molar
[8] = Log10 Concentration −5.0, Molar
[9] = Log10 Concentration −6.0, Molar
[10] = Log10 Concentration −7.0, Molar
[11] = Log10 Concentration −8.0, Molar

## CNC(=O)NC[C@H]1O[C@@H](n2cnc3c(NC(=O)Nc4ccccc4)ncnc32)C(O[Si](C)(C)C(C)(C)C)[C@H]1O[Si](C)(C)C(C)(C)C (stereo partly drawn) [Compound 25, 2′,3′-Bis-O-(tert-butyldimethylsilyl)-5-deoxy-5′-[(N-methylcarbamoyl)amino]-N^6-(N-phenylcarbamoyl)adenosine]
SK-MEL-5
  GI50: 1980 nM
  IC50: 13.6 µM
NCI-H460
  TGI: 3.49E−6 Molar
NCI-H460; [7]
  Percent Growth: −75%
NCI-H460; [8]
  Percent Growth: −74%
NCI-H460; [9]
  Percent Growth: 88%
NCI-H460; [10]
  Percent Growth: 93%
NCI-H460; [11]
  Percent Growth: 104%
NCI-H322M [1]
  GI50: 6.86 µM
  IC50: > 100 µM
A549/ATCC
  GI50: 2900 nM
  IC50: > 100 µM
KM12
  GI50: 2130 nM
  IC50: 8.05 µM
HT29
  GI50: 2020 nM
  IC50: 8.91 µM
HOP-92
  GI50: 15.5 µM
  IC50: 97.5 µM
ACHN [2]
  GI50: 3.83 µM
  IC50: > 100 µM
SF-539 [3]
  TGI: 1.30E−5 Molar
SF-539 [3]; [7]
  Percent Growth: −51%
SF-539 [3]; [8]
  Percent Growth: 7%
SF-539 [3]; [9]
  Percent Growth: 91%
SF-539 [3]; [10]
  Percent Growth: 100%
SF-539 [3]; [11]
  Percent Growth: 100%
HCT-116
  GI50: 2110 nM
  IC50: 8.8 µM
MDA-MB-435
  GI50: 3.41 µM
  IC50: > 100 µM
PC-3
  TGI: >1.00E−4 Molar
PC-3; [7]
  Percent Growth: 4%
PC-3; [8]
  Percent Growth: 6%
PC-3; [9]
  Percent Growth: 83%
PC-3; [10]
  Percent Growth: 91%
PC-3; [11]
  Percent Growth: 93%
OVCAR-3
  GI50: 2600 nM
  IC50: 98.2 µM
COLO 205
  TGI: 3.35E−6 Molar
COLO 205; [7]
  Percent Growth: −94%
COLO 205; [8]
  Percent Growth: −95%
COLO 205; [9]
  Percent Growth: 105%
COLO 205; [10]
  Percent Growth: 111%
COLO 205; [11]
  Percent Growth: 109%
NCI/ADR-RES
  TGI: 2.07E−5 Molar
NCI/ADR-RES; Log10 Concentration −4.0 Molar
  Percent Growth: −21%
NCI/ADR-RES; Log10 Concentration −5.0 Molar
  Percent Growth: 10%
NCI/ADR-RES; Log10 Concentration −6.0 Molar
  Percent Growth: 103%
NCI/ADR-RES; Log10 Concentration −7.0 Molar
  Percent Growth: 109%
NCI/ADR-RES; Log10 Concentration −8.0 Molar
  Percent Growth: 105%
HCC-2998
  TGI: 3.75E−6 Molar
HCC-2998; Log10 Concentration −4.0 Molar
  Percent Growth: −91%
HCC-2998; Log10 Concentration −5.0 Molar
  Percent Growth: −79%
HCC-2998; Log10 Concentration −6.0 Molar
  Percent Growth: 106%
HCC-2998; Log10 Concentration −7.0 Molar
  Percent Growth: 93%
HCC-2998; Log10 Concentration −8.0 Molar
  Percent Growth: 100%
EKVX
  TGI: 3.06E−5 Molar
EKVX; [7]
  Percent Growth: −9%
EKVX; [8]
  Percent Growth: 9%
EKVX; [9]
  Percent Growth: 104%
EKVX; [10]
  Percent Growth: 111%
EKVX; [11]
  Percent Growth: 106%
ACHN [4]
  TGI: >1.00E−4 Molar
ACHN [4]; [7]
  Percent Growth: 2%
ACHN [4]; [8]
  Percent Growth: 10%
ACHN [4]; [9]
  Percent Growth: 105%
ACHN [4]; [10]
  Percent Growth: 108%
ACHN [4]; [11]
  Percent Growth: 107%
NCI-H322M [5]
  TGI: >1.00E−4 Molar
NCI-H322M [5]; Log10 Concentration −4.0 Molar
  Percent Growth: 21%
NCI-H322M [5]; Log10 Concentration −5.0 Molar
  Percent Growth: 39%
NCI-H322M [5]; Log10 Concentration −6.0 Molar
  Percent Growth: 105%
NCI-H322M [5]; Log10 Concentration −7.0 Molar
  Percent Growth: 106%
NCI-H322M [5]; Log10 Concentration −8.0 Molar
  Percent Growth: 102%
SF-539 [6]
  GI50: 3.07 µM
  IC50: 94.3 µM
DU-145
  TGI: 5.71E−6 Molar
DU-145; [7]
  Percent Growth: −89%
DU-145; [8]
  Percent Growth: −35%
DU-145; [9]
  Percent Growth: 109%
DU-145; [10]
  Percent Growth: 107%
DU-145; [11]
  Percent Growth: 103%
RPMI-8226
  GI50: 3.27 µM
  IC50: > 100 µM
CCRF-CEM
  TGI: >1.00E−4 Molar
CCRF-CEM; [7]
  Percent Growth: 4%
CCRF-CEM; [8]
  Percent Growth: 9%
CCRF-CEM; [9]
  Percent Growth: 101%
CCRF-CEM; [10]
  Percent Growth: 109%
CCRF-CEM; [11]
  Percent Growth: 104%
